4 substances from US7220725B2, “Pharmaceutical composition comprising an analgesic peptide and method for treating pain” (S.I.S. Shulov Institute for Science Ltd., priority 2000, dated 2007) can be followed below.

This test concerns HCl induced pain. As to the kind of experiment: Analgesic assay: licks after subcutaneous HCl injection following topical ointment. The format is in vivo, hamsters. Here is the method:
In each test, a few tens of hamsters of similar weight and age were used. The hamsters were divided into groups according to the number of samples to be tested. Ointment (50% Lanolin and 50% Vaseline) containing the tested substance was applied to the animal's fur on the back region. The fur was not removed so as to ensure that no damage to the skin occurred. A control group of hamsters was treated with ointment without the fraction of the invention. Hamsters were treated by topical application for 6, 14, 21 or 28 consecutive days. The test for analgesity was conducted following the last application of the ointment. In an alternate protocol, analgesity was tested following a single application of the ointment.
Subsequently to application of the ointment, the hamsters “clean” themselves by dispersing the ointment all over their body with their tongue and legs. Thus, some of the ointment is introduced into the oral cavity and possibly also into the intestine of the hamsters.
In a typical test, a constant amount of ointment with or without an analgesic substance is applied to each animal for a predetermined period of one or more days. Following this period, pain is induced by a subcutaneous injection of 0.5 ml of 1N HCl/0.1 kg body weight in the femur region. The hamsters respond to the HCl injection by touching the area of injection with the tongue, this being called a “lick”. 20 minutes after injection the hamster is observed for 60 min and the number of “licks” are counted. The number of “licks” serves as a quantitative indication of the HCl induced pain.
The analgesic effect is determined by comparing the mean number of “licks” in control animals to the number in treated animals. The significance of the difference was determined using t-test statistics.
0.6 mg of pENW, pENWK-C8 or pENWGAT (a dimer of pENW) were dissolved in 5 ml of DDW, mixed by an ultrasonic mixer for 2 minutes and then dissolved in […] of ointment. The final peptide concentration was 0.002 mg/gr.
6 applications were made over a period of 4 weeks. The test for analgesity was conducted 10 days following the last application of the ointment.
Compositions at a concentration of 0.020 mg/g were prepared as in Example 1 containing the following active ingredients: pENW, pEEW, or pENTW or pENWT. 6 applications were made over a period of 5 weeks. The results are summarized below:
A composition containing pENW—C8 at a concentration of 0.002 mg/g ointment was prepared as in Example 1. A single application was made to the animals, and analgesity was assayed 11, 23 and 48 days post-application. Ointment without an active substance was applied to the control animals.

Setting [1] is: Example 1: 0.002 mg/gr in ointment, topical, 6 applications over 4 weeks, tested 10 days after last application, control 113.9.
The mark [2] stands for this setting: Example 2: 0.020 mg/g in ointment, topical, 6 applications over 5 weeks, control 117.

Square brackets hold non-standard residues; d marks the D form. * marks the point of attachment. pGlu = O=C1CC[C@@H](C(=O)O)N1; Octanoyl = CCCCCCCC(=O)*

“pGLU-ASN-TRP-LYS(octanoyl)-OH ([pGlu]NWK(Octanoyl)-OH; SMILES CCCCCCCC(=O)NCCCC[C@H](NC(=O)[C@H](Cc1c[nH]c2ccccc12)NC(=O)[C@H](CC(N)=O)NC(=O)[C@@H]1CCC(=O)N1)C(=O)O) [pENWK-C8]”: under setting [1], the “mean number of licks” value was determined as 37.9.
For the substance pGLU-GLU-TRP—OH [pEEW], the “mean number of licks” value under setting [2] was found to be 35.
Consider pGLU-ASN-TRP—OH [pENW], for which the “mean number of licks” value under setting [1] was 59.7 and the “mean number of licks” value under setting [2] was 44.
Turning to pGlu-Asn-Trp-O-octyl [pENW—C8], the “mean number of licks” value (Example 3: 0.002 mg/g ointment, single application, 11 days post application, control 106) came out at 66; the “mean number of licks” value (Example 3: 0.002 mg/g ointment, single application, 23 days post application, control 106) turned out to be 35.7; the “mean number of licks” value (Example 3: 0.002 mg/g ointment, single application, 48 days post application, control 106) stood at 62.4.
